Read-outs that look alike come from different tables or passages of the source. Marks after values point to notes of the source that are not given here.
Tests used:
[1] = test system: TNF-α production in PBMC stimulated with LPS; assay: Inhibition of TNF-α production in PBMCs stimulated with LPS (ELISA); assay type: cell-based; details: Homo sapiens, average of 2 independent experiments (donors), LPS 1 ng/mL, 24 h, read-out: IC50/μM (av.) PMBC-LPS/TNF-α
Experimental: PBMC isolation. Human peripheral blood mononuclear cells (PBMCs) were isolated from buffy coats obtained from healthy adult volunteers. The buffy coats were diluted with sterile PBS and layered over Lymphoprep (Axis-Shield Diagnostics, Dundee, UK). Tubes were centrifuged for 35 min at 400× g (RT; acceleration and break turned off). After centrifugation, the mononuclear ring was collected, transferred into a new 50 mL tube, and washed thrice with sterile PBS. The remaining erythrocytes were lysed with an isotonic solution of ammonium chloride (150 mM; Kemika, Zagreb, Croatia).
Treatment and stimulation of human PBMCs. Immediately after isolation, 200,000 PBMCs were seeded per well of a 96-well plate. Compounds were dissolved in 100% dimethyl sulfoxide (DMSO, Sigma, Darmstadt, Germany), and serial dilutions in DMSO were prepared and added to cells, with starting concentration for test compounds 100 µM or 1 µM for reference dexamethasone. […] Plates were incubated for 24 h at 37 °C, 5% CO2, followed by the collection of supernatants for measurement of TNF-α and cell viability assessment.
Enzyme-linked immunosorbent assay (ELISA) and cytotoxicity analysis. TNFα concentration in PBMC supernatants was measured using ELISA assay, using antibodies obtained from BD Pharmingen (San Diego, CA, USA) and recombinant human TNFα protein (standard) from R&D Systems (Minneapolis, MN, USA). Lumitrac 600 384-well plates (Greiner Bio-One, Kremsmünster, Austria) were coated overnight with 1 µg/mL of TNFα capture antibody diluted in phosphate-buffered saline (PBS, Thermo Fisher Scientific, Waltham, MA, USA), followed by a washing step and blocking with 5% sucrose in assay diluent (1% bovine serum albumin (BSA; Sigma, Darmstadt, Germany) in PBS) for 4 h at RT. After the blocking step, the plates were washed, and samples/standards were added to the plates. After overnight incubation at 4 °C, detection antibodies diluted in assay diluent to a final concentration of 250 ng/mL were added. Following incubation for 2 h at RT, plates were washed, and streptavidin-HRP (Thermo Fisher Scientific, Waltham, MA, USA) solution was added (final concentration 500 ng/mL, prepared in assay diluent). Plates were incubated for 20 min at RT in the dark and washed, followed by adding Luminol substrate (Sigma, Darmstadt, Germany). […] To evaluate cell viability, Cell Titer Glo reagent was used (Promega, Madison, WI, USA) according to the manufacturer’s instructions.
(§1) Data analysis. For ELISA, the blank was subtracted from measured RLU values, and TNFα concentrations in samples were interpolated from the standard curve. QC parameters for each plate were calculated from raw data. […] For viability assessment, the average luminescence value was calculated from all trigger vehicle samples, and the percentage of vehicle value was calculated for all samples. The compound effect was considered cytotoxic if reduction from a vehicle was ≥20%, and these concentrations were excluded from further analysis. IC50 values of tested compounds were determined in GraphPad Prism 9 software using nonlinear regression curve fit (four parameters, with variable slope).

[2] = target: AChE (Electrophorus electricus, UniProt O42275); assay: biochemical; assay type: biochemical; details: for inhibition at 250 µM: at maximal concentration tested 250 μM; for selectivity AChE over BChE: from IC50 values of Table 2; for inhibition: at maximal concentration tested 350 μM; for inhibition at 500 µM: at maximal concentration tested 500 μM
Sequence of AChE (O42275 24-633): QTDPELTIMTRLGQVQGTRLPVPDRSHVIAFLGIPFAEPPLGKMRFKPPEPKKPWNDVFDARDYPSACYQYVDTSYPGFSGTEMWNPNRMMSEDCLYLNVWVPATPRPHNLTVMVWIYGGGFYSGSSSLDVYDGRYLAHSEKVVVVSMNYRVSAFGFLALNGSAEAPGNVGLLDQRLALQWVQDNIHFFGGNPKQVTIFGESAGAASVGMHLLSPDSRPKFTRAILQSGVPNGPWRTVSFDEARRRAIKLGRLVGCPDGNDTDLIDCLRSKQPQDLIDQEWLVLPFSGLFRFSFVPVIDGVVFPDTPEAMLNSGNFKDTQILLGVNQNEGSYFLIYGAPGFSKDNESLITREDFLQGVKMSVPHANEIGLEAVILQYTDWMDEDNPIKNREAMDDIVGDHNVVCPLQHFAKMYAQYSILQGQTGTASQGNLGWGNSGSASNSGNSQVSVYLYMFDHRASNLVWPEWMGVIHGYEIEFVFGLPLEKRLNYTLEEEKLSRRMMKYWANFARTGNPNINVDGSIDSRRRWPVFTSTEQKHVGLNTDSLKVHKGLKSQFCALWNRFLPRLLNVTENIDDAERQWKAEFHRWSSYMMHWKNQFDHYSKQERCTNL

[3] = target: BChE (Equus caballus, UniProt P81908); assay: biochemical; assay type: biochemical; details: for inhibition at 250 µM / inhibition at 350 µM / inhibition at 500 µM: read-out: BChE % Inhibition
Sequence of BChE (P81908 whole entry): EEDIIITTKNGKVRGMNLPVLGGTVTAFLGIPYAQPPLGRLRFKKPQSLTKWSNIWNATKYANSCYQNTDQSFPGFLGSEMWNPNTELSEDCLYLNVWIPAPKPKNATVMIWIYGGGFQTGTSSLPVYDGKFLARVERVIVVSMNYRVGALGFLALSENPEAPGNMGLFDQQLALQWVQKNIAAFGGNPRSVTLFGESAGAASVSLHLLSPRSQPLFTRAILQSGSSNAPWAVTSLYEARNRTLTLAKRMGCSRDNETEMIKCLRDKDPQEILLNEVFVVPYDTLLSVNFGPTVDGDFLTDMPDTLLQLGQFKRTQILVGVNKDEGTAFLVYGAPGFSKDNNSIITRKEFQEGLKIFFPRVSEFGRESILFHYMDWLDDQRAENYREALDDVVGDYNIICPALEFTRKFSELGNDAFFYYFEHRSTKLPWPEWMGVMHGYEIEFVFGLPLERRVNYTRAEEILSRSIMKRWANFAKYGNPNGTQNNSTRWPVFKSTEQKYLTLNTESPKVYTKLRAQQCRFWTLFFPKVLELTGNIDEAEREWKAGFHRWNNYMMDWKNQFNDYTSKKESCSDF

[4] = test system: PBMCs; assay: Cell viability of PBMCs after incubation with compounds (ATP, Cell Titer Glo); assay type: cell-based
Experimental: The potential to act anti-inflammatory was evaluated for 1,2,3-triazole derivatives 1–31 in vitro in an assay where PBMCs from 2 healthy donors were stimulated with LPS to induce the immune response. As a measurement of response, the pro-inflammatory cytokine TNF-α was determined. […] […].
Treatment and stimulation of human PBMCs. Immediately after isolation, 200,000 PBMCs were seeded per well of a 96-well plate. Compounds were dissolved in 100% dimethyl sulfoxide (DMSO, Sigma, Darmstadt, Germany), and serial dilutions in DMSO were prepared and added to cells, with starting concentration for test compounds 100 µM or 1 µM for reference dexamethasone. After pre-incubation for 1h with the compounds, lipopolysaccharide (LPS) from E. coli 0111:B4 (Sigma, Darmstadt, Germany) was added to cells at 1 ng/mL final concentration. Plates were incubated for 24 h at 37 °C, 5% CO2, followed by the collection of supernatants for measurement of TNF-α and cell viability assessment.
Enzyme-linked immunosorbent assay (ELISA) and cytotoxicity analysis. TNFα concentration in PBMC supernatants was measured using ELISA assay, using antibodies obtained from BD Pharmingen (San Diego, CA, USA) and recombinant human TNFα protein (standard) from R&D Systems (Minneapolis, MN, USA). Lumitrac 600 384-well plates (Greiner Bio-One, Kremsmünster, Austria) were coated overnight with 1 µg/mL of TNFα capture antibody diluted in phosphate-buffered saline (PBS, Thermo Fisher Scientific, Waltham, MA, USA), followed by a washing step and blocking with 5% sucrose in assay diluent (1% bovine serum albumin (BSA; Sigma, Darmstadt, Germany) in PBS) for 4 h at RT. After the blocking step, the plates were washed, and samples/standards were added to the plates. […]. Following incubation for 2 h at RT, plates were washed, and streptavidin-HRP (Thermo Fisher Scientific, Waltham, MA, USA) solution was added (final concentration 500 ng/mL, prepared in assay diluent). Plates were incubated for 20 min at RT in the dark and washed, followed by adding Luminol substrate (Sigma, Darmstadt, Germany). Luminescence was measured using EnVision 2104 Multilabel Plate Reader (PerkinElmer, MA, USA), with an exposition time of 0.1 s. […]
as §1, with “The compound effect was considered cytotoxic if reduction from a vehicle was ≥20%, and these concentrations were excluded from further analysis.” left out

[5] = test system: TNF-α production in PBMC stimulated with LPS; details: previous research; read-out: PMBC-LPS/TNFα; cited from earlier work
[6] = PBMC, ATP levels, highest tested concentration

COc1cccc(Cn2nnc3ccc4ccc(OC)cc4c32)c1 [Compound 6, 8-methoxy-1-(3-methoxybenzyl)-1H-naphtho[1,2-d][1–3]triazole]
IC50 [1]: 1.9 µM
IC50 [2]: 177 µM
inhibition at 250 µM [2]: 78.6 ± 3.8%
selectivity AChE over BChE [2]: Selective inhibition toward AChE
inhibition at 250 µM [3]: 47.8 ± 0.5%

Cc1cc2c(ccc3nnn(Cc4cccs4)c32)s1 [Compound 11, 7-methyl-1-(thiophen-2-ylmethyl)-1H-thieno[3′,2′:3,4]benzo[1,2-d][1–3]triazole]
IC50 [1]: 38.7 µM
IC50 [2]: 218 µM
inhibition [2]: 71.3 ± 0.3%
IC50 [3]: 123 µM
inhibition at 350 µM [3]: 72.3 ± 5.6%

COc1ccc(Cn2nnc3ccc4sc(C)cc4c32)cc1 [Compound 10, 1-(4-methoxybenzyl)-7-methyl-1H-thieno[3′,2′:3,4]benzo[1,2-d][1–3]triazole]
IC50 [1]: 19.2 µM
IC50 [2]: 66.6 µM
inhibition [2]: 83.6 ± 3.7%
IC50 [3]: 99.7 µM
inhibition at 350 µM [3]: 65.2 ± 0.3%

OCCCCn1nnc2ccc3sccc3c21 [Compound 14]
IC50 [1]: 38.8 µM

CC(C)c1nc2ccc3sccc3c2s1 [Compound 28]
IC50 [1]: > 100 µM

C=CCCn1nnc2ccc3ccc(OC)cc3c21 [Compound 2, 1-(but-3-en-1-yl)-8-methoxy-1H-naphtho[1,2-d][1–3]triazole]
IC50 [1]: 10.4 µM
IC50 [2]: 91.8 µM
inhibition at 500 µM [2]: 77.9 ± 3.6%
IC50 [3]: 110 µM
inhibition at 500 µM [3]: 80.2 ± 0.7%

FC(F)(F)c1ccc(Cn2nnc3ccc4sccc4c32)cc1 [Compound 19]
IC50 [1]: 10.2 µM
cell viability [4]: 10.2 **
cell viability [4, 6]: cell viability reduction

C[C@@H]1C[C@H]2[C@@H]3CCC4=CC(=O)C=C[C@]4(C)[C@@]3(F)[C@@H](O)C[C@]2(C)[C@@]1(O)C(=O)CO [dexamethasone, reference compound]
IC50 [1]: 0.007 µM

Clc1nc2c(ccc3sccc32)s1 [Compound 29]
IC50 [1]: > 100 µM

COc1ccc(Cn2nnc3ccc4ccc(OC)cc4c32)cc1 [C]
IC50 [5]: 2.2 µM

Cc1nc2c(ccc3sccc32)s1 [Compound 27]
IC50 [1]: 12.2 µM

c1cc2c(ccc3nnn(CCCN4CCOCC4)c32)s1 [Compound 16]
IC50 [1]: > 100 µM

C=CCCCn1nnc2ccc3sccc3c21 [Compound 13, 1-(pent-4-en-1-yl)-1H-thieno[3′,2′:3,4]benzo[1,2-d][1–3]triazole]
IC50 [1]: 21.3 µM
inhibition at 250 µM [2]: 46.4 ± 2.5%
IC50 [3]: 40.7 µM
selectivity BChE over AChE ([3]; from IC50 values of Table 2): selective inhibition for BChE
inhibition at 250 µM [3]: 86.5 ± 5%

COc1ccc2ccc3nnn(Cc4cccs4)c3c2c1 [Compound 7, 8-methoxy-1-(thiophen-2-ylmethyl)-1H-naphtho[1,2-d][1–3]triazole]
IC50 [1]: > 100 µM
IC50 [2]: 110 µM
inhibition at 500 µM [2]: 81.4 ± 0.8%
IC50 [3]: 294 µM
inhibition at 500 µM [3]: 60.9 ± 0.4%

Fc1ccc(Cn2nnc3ccc4sccc4c32)cc1 [Compound 18]
IC50 [1]: 27.7 µM

CC(=O)Nc1nc2c(ccc3sccc32)s1 [Compound 31]
IC50 [1]: > 100 µM

C=CCCCn1nnc2ccc3ccc(OC)cc3c21 [Compound 3, 8-methoxy-1-(pent-4-en-1-yl)-1H-naphtho[1,2-d][1–3]triazole]
IC50 [1]: 12 µM
IC50 [2]: 51.3 µM
inhibition at 250 µM [2]: 64.8 ± 5.3%
IC50 [3]: 53.5 µM
inhibition at 250 µM [3]: 76.6 ± 1.8%

FC(F)(F)Oc1ccc(Cn2nnc3ccc4sccc4c32)cc1 [Compound 20]
IC50 [1]: 8.9 µM
cell viability [4, 6]: cell viability reduction

COc1ccc(CCn2nnc3ccc4sccc4c32)cc1 [Compound 21]
IC50 [1]: 17 µM

c1cc2c(s1)CCc1nnn(CCCN3CCOCC3)c1-2 [Compound 25]
IC50 [1]: > 100 µM

COc1ccc2ccc3nnn(Cc4ccc(F)cc4)c3c2c1 [Compound 4, 1-(4-fluorobenzyl)-8-methoxy-1H-naphtho[1,2-d][1–3]triazole]
IC50 [1]: 19.1 µM
inhibition at 500 µM [2]: 35.1 ± 2%
inhibition at 500 µM [3]: 25 ± 0.5%

C=CCn1nnc2ccc3sc(C)cc3c21 [Compound 8, 1-allyl-7-methyl-1H-thieno[3′,2′:3,4]benzo[1,2-d][1–3]triazole]
IC50 [1]: > 100 µM
inhibition [2]: 43.5 ± 2.1%
IC50 [3]: 206 µM
inhibition at 350 µM [3]: 62.6 ± 0.2%

CCOC(=O)CCn1nnc2ccc3sccc3c21 [Compound 17]
IC50 [1]: > 100 µM

FC(F)(F)c1nc2c(ccc3sccc32)s1 [Compound 30]
IC50 [1]: > 100 µM

c1csc(Cn2nnc3ccc4sccc4c32)c1 [Compound 22]
IC50 [1]: 16.1 µM

c1cc2c(s1)CCc1nnn(CCN3CCOCC3)c1-2 [Compound 24]
IC50 [1]: > 100 µM

COc1ccc2ccc3nnn(C(C)C)c3c2c1 [Compound 1, 1-isopropyl-8-methoxy-1H-naphtho[1,2-d][1–3]triazole]
IC50 [1]: 8.1 µM
IC50 [2]: 329 µM
inhibition at 500 µM [2]: 58.1 ± 1.6%
IC50 [3]: 261 µM
inhibition at 500 µM [3]: 65.3 ± 0.7%

Cc1cc2c(ccc3nnn(Cc4ccc(F)cc4)c32)s1 [Compound 9, 1-(4-fluorobenzyl)-7-methyl-1H-thieno[3′,2′:3,4]benzo[1,2-d][1–3]triazole]
IC50 [1]: > 100 µM
IC50 [2]: 83 µM
inhibition [2]: 78.8 ± 1.9%
IC50 [3]: 69.8 µM
inhibition at 350 µM [3]: 76.1 ± 0.8%

Cc1cc2c(ccc3nnn(Cc4ccco4)c32)s1 [Compound 12, 1-(furan-2-ylmethyl)-7-methyl-1H-thieno[3′,2′:3,4]benzo[1,2-d][1–3]triazole]
IC50 [1]: 40.6 µM
inhibition [2]: 41.8 ± 1%
inhibition at 350 µM [3]: 46.1%

OCCCCn1nnc2c1-c1ccsc1CC2 [Compound 23]
IC50 [1]: > 100 µM

FC(F)(F)c1ccc(Cn2nnc3c2-c2ccsc2CC3)cc1 [Compound 26]
IC50 [1]: 9.4 µM
cell viability [4, 6]: cell viability reduction

COc1ccc2ccc3nnn(Cc4cccc(F)c4)c3c2c1 [Compound 5, 1-(3-fluorobenzyl)-8-methoxy-1H-naphtho[1,2-d][1–3]triazole]
IC50 [1]: > 100 µM
IC50 [2]: 55.5 µM
inhibition at 250 µM [2]: 80.8 ± 1.8%
selectivity AChE over BChE [2]: Selective inhibition toward AChE
inhibition at 250 µM [3]: 43.8 ± 1.8%

— article PMC10572743 (International Journal of Molecular Sciences, 2023)
